# ChEMBL document CHEMBL1909046, “DrugMatrix in vitro pharmacology data”
# Key:
# [1] = molecular target: cGMP-specific 3',5'-cyclic phosphodiesterase (Homo sapiens, UniProt O76074); experiment: DRUGMATRIX: Phosphodiesterase PDE5 enzyme inhibition (substrate: [3H]cGMP + cGMP); type: tissue-based; conditions: platelet; Not Active = under 50% inhibition at 10 µM
# Adenosine receptor A1 = molecular target: T1, Adenosine receptor A1 (Homo sapiens, UniProt P30542); type: cell membranes, CHO, Membrane;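 further: radioligand binding assay at the adenosine A1 receptor, with DPCPX serving as the labelled ligand; in other assays of this panel Not Active means under 50% inhibition at 10 µM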
# T1 sequence (P30542 whole entry): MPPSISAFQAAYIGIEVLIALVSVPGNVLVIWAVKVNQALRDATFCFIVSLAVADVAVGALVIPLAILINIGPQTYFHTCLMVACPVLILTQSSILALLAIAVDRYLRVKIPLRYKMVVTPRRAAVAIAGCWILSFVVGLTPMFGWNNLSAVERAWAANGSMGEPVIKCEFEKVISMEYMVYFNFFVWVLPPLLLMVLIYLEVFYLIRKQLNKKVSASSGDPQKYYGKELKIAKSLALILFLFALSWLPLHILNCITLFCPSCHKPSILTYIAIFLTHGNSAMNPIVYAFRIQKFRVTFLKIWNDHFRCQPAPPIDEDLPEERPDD
# [2] = molecular target: Sigma non-opioid intracellular receptor 1 (Homo sapiens, UniProt Q99720); experiment: DRUGMATRIX: Sigma1 radioligand binding (ligand: [3H] Haloperidol); type: cell membranes, Jurkat, Membrane; conditions: jurkat; Not Active = under 50% inhibition at 10 µM
# Sigma non-opioid intracellular receptor 1, sequence (Q99720 whole entry): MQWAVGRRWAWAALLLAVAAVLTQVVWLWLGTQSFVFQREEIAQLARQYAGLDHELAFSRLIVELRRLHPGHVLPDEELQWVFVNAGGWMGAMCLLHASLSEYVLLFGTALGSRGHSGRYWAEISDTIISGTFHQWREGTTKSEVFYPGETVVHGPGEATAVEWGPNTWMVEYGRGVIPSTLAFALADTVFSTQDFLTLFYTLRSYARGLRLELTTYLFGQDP
# Mu-type opioid receptor = Mu-type opioid receptor (Homo sapiens, UniProt P35372); experiment: DRUGMATRIX: Opiate mu (OP3, MOP) radioligand binding (ligand: [3H] Diprenorphine); type: cell membranes, CHO-K1, Membrane; conditions: cho-k1; Not Active = under 50% inhibition at 10 µM
# Mu-type opioid receptor, sequence (P35372 whole entry): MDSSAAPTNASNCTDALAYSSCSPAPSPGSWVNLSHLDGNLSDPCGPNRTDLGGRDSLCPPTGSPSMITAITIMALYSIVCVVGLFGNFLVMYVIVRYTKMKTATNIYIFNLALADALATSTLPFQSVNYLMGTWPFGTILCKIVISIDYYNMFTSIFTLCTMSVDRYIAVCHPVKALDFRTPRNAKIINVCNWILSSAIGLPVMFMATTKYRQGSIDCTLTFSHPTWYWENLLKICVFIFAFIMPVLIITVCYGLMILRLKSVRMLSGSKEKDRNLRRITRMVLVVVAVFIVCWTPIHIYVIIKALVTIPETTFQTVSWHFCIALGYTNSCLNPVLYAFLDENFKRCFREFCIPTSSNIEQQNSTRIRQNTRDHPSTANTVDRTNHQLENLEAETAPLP
# [3] = molecular target: T2, Vasoactive intestinal polypeptide receptor 1 (Homo sapiens, UniProt P32241); type: cell membranes, Membrane; conditions: ht-29; further: in other assays of this panel Not Active means under 50% inhibition at 10 µM
# T2 sequence (P32241 whole entry): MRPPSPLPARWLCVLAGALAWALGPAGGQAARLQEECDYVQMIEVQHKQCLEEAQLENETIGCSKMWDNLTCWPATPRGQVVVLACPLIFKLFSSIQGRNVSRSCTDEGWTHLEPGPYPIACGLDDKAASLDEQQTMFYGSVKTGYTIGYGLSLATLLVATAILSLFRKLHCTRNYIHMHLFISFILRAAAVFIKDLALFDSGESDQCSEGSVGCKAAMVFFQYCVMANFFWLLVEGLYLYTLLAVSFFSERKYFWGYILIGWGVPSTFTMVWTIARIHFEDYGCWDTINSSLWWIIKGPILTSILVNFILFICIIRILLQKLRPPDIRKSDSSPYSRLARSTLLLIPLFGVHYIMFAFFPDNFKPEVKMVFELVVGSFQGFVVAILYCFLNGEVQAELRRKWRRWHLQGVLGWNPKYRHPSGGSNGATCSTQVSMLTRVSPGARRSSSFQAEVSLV
# [4] = DRUGMATRIX: Leukotriene, BLT (LTB4) radioligand binding (ligand: [3H]LTB4); type: cell membranes, Membrane; conditions: u-937; Not Active = under 50% inhibition at 10 µM
# Melanocortin receptor 3 = Melanocortin receptor 3 (Homo sapiens, UniProt P41968); type: cell membranes, Membrane; conditions: hek293; further: in other assays of this panel Not Active means under 50% inhibition at 10 µM
# Melanocortin receptor 3, sequence (P41968 whole entry): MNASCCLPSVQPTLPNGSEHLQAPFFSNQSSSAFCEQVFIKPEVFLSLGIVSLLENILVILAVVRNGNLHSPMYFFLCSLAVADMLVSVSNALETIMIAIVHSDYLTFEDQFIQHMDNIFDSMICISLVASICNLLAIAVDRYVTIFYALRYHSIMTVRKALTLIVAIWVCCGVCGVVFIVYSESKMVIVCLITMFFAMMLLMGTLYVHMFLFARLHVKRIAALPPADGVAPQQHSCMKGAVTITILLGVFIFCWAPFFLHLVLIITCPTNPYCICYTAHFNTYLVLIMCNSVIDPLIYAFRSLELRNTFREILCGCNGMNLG
compound,measurement,setting,value
Cc1cn[nH]c1 [FOMEPIZOLE],IC50,[1],Not Active
same,IC50,Adenosine receptor A1; cho,Not Active
same,IC50,[2],Not Active
same,IC50,Mu-type opioid receptor,Not Active
same,IC50,[3],Not Active
same,IC50,[4],Not Active
same,Ki,[4],Not Active
same,IC50,Melanocortin receptor 3,Not Active
NC[C@@H]1O[C@H](O[C@H]2[C@@H](O)[C@H](O[C@@H]3[C@@H](O)[C@H](N)C[C@H](N)[C@H]3O[C@H]3O[C@H](CN)[C@@H](O)[C@H](O)[C@H]3N)O[C@@H]2CO)[C@H](N)[C@@H](O)[C@@H]1O [FRAMYCETIN],IC50,[1],Not Active
same,IC50,Adenosine receptor A1; cho,Not Active
same,IC50,[2],Not Active
same,IC50,Mu-type opioid receptor,Not Active
same,IC50,[3],Not Active
same,IC50,[4],Not Active
same,Ki,[4],Not Active
same,IC50,Melanocortin receptor 3,Not Active
C[C@H]([C@](O)(Cn1cncn1)c1ccc(F)cc1F)S(C)(=O)=O [GENACONAZOLE],IC50,[1],Not Active
same,IC50,Adenosine receptor A1; cho,Not Active
same,IC50,[2],Not Active
same,IC50,Mu-type opioid receptor,Not Active
same,IC50,[3],Not Active
same,IC50,[4],Not Active
same,Ki,[4],Not Active
same,IC50,Melanocortin receptor 3,Not Active
Cc1cnc(C(=O)NCCc2ccc(S(=O)(=O)NC(=O)NC3CCCCC3)cc2)cn1 [GLIPIZIDE],IC50,[1],Not Active
same,IC50,Adenosine receptor A1; cho,Not Active
same,IC50,[2],Not Active
same,IC50,Mu-type opioid receptor,Not Active
same,IC50,[3],Not Active
same,IC50,[4],Not Active
same,Ki,[4],Not Active
same,IC50,Melanocortin receptor 3,Not Active
Cc1c(F)c(N2CCNC(C)C2)cc2c1c(=O)c(C(=O)O)cn2C1CC1 (stereo not given) [GREPAFLOXACIN],IC50,[1],Not Active
same,IC50,Adenosine receptor A1; cho,Not Active
same,IC50,[2],Not Active
same,IC50,Mu-type opioid receptor,Not Active
same,IC50,[3],Not Active
same,IC50,[4],Not Active
same,Ki,[4],Not Active
same,IC50,Melanocortin receptor 3,Not Active
COc1ccccc1OCC(O)CO (stereo not given) [GUAIFENESIN],IC50,[1],Not Active
same,IC50,Adenosine receptor A1; cho,Not Active
same,IC50,[2],Not Active
same,IC50,Mu-type opioid receptor,Not Active
same,IC50,[3],Not Active
same,IC50,[4],Not Active
same,Ki,[4],Not Active
same,IC50,Melanocortin receptor 3,Not Active
N=C(N)N/N=C/c1c(Cl)cccc1Cl [GUANABENZ],IC50,[1],Not Active
same,IC50,Adenosine receptor A1; cho,Not Active
same,IC50,[2],Not Active
same,IC50,Mu-type opioid receptor,Not Active
same,IC50,[3],Not Active
same,IC50,[4],Not Active
same,Ki,[4],Not Active
same,IC50,Melanocortin receptor 3,Not Active
C[C@]12CCC(=O)C=C1CC[C@@H]1[C@@H]2[C@@H](O)C[C@@]2(C)[C@H]1CC[C@]2(O)C(=O)CO [HYDROCORTISONE],IC50,[1],Not Active
same,IC50,Adenosine receptor A1; cho,Not Active
same,IC50,[2],Not Active
same,IC50,Mu-type opioid receptor,Not Active
same,IC50,[3],Not Active
same,IC50,[4],Not Active
same,Ki,[4],Not Active
same,IC50,Melanocortin receptor 3,Not Active
C/C=C\c1ccc(O)c(OC)c1 [ISOEUGENOL],IC50,[1],Not Active
same,IC50,Adenosine receptor A1; cho,Not Active
same,IC50,[2],Not Active
same,IC50,Mu-type opioid receptor,Not Active
same,IC50,[3],Not Active
same,IC50,[4],Not Active
same,Ki,[4],Not Active
same,IC50,Melanocortin receptor 3,Not Active
NC[C@H]1O[C@H](O[C@H]2[C@H](O)[C@@H](O[C@H]3O[C@H](CO)[C@@H](O)[C@H](N)[C@H]3O)[C@H](N)C[C@@H]2N)[C@H](O)[C@@H](O)[C@@H]1O [KANAMYCIN],IC50,[1],Not Active
same,IC50,Adenosine receptor A1; cho,Not Active
same,IC50,[2],Not Active
same,IC50,Mu-type opioid receptor,Not Active
same,IC50,[3],Not Active
same,IC50,[4],Not Active
same,Ki,[4],Not Active
same,IC50,Melanocortin receptor 3,Not Active
CC[C@H](C)C(=O)O[C@H]1C[C@@H](C)C=C2C=C[C@H](C)[C@H](CC[C@@H]3C[C@@H](O)CC(=O)O3)[C@H]21 [LOVASTATIN],IC50,[1],Not Active
same,IC50,Adenosine receptor A1; read-out: IC50,26.7 µM
same,Ki,Adenosine receptor A1; read-out: Ki,15.6 µM
same,IC50,[2],Not Active
same,IC50,Mu-type opioid receptor,Not Active
same,IC50,[3],Not Active
same,IC50,[4],Not Active
same,Ki,[4],Not Active
same,IC50,Melanocortin receptor 3,Not Active
CC(C(=O)O)c1ccc(CC2CCCC2=O)cc1 (stereo not given) [LOXOPROFEN],IC50,[1],Not Active
same,IC50,Adenosine receptor A1; cho,Not Active
same,IC50,[2],Not Active
same,IC50,Mu-type opioid receptor,Not Active
same,IC50,[3],Not Active
same,IC50,[4],Not Active
same,Ki,[4],Not Active
same,IC50,Melanocortin receptor 3,Not Active
Cc1cccc(Nc2ccccc2C(=O)O)c1C [MEFENAMIC ACID],IC50,[1],Not Active
same,IC50,Adenosine receptor A1; cho,Not Active
same,IC50,[2],Not Active
same,IC50,Mu-type opioid receptor,Not Active
same,IC50,[3],Not Active
same,IC50,[4],Not Active
same,Ki,[4],Not Active
same,IC50,Melanocortin receptor 3,Not Active
